Results reported in ChEMBL document CHEMBL1777704, “Identification and synthesis of N'-(2-oxoindolin-3-ylidene)hydrazide derivatives against c-Met kinase” (Bioorg Med Chem Lett, 2011).

Target: Hepatocyte growth factor receptor (Homo sapiens, UniProt P08581)
Test: Inhibition of purified c-Met using poly(glu,tyr) as substrate after 60 mins by ELISA

Chain of Hepatocyte growth factor receptor (P08581 whole entry): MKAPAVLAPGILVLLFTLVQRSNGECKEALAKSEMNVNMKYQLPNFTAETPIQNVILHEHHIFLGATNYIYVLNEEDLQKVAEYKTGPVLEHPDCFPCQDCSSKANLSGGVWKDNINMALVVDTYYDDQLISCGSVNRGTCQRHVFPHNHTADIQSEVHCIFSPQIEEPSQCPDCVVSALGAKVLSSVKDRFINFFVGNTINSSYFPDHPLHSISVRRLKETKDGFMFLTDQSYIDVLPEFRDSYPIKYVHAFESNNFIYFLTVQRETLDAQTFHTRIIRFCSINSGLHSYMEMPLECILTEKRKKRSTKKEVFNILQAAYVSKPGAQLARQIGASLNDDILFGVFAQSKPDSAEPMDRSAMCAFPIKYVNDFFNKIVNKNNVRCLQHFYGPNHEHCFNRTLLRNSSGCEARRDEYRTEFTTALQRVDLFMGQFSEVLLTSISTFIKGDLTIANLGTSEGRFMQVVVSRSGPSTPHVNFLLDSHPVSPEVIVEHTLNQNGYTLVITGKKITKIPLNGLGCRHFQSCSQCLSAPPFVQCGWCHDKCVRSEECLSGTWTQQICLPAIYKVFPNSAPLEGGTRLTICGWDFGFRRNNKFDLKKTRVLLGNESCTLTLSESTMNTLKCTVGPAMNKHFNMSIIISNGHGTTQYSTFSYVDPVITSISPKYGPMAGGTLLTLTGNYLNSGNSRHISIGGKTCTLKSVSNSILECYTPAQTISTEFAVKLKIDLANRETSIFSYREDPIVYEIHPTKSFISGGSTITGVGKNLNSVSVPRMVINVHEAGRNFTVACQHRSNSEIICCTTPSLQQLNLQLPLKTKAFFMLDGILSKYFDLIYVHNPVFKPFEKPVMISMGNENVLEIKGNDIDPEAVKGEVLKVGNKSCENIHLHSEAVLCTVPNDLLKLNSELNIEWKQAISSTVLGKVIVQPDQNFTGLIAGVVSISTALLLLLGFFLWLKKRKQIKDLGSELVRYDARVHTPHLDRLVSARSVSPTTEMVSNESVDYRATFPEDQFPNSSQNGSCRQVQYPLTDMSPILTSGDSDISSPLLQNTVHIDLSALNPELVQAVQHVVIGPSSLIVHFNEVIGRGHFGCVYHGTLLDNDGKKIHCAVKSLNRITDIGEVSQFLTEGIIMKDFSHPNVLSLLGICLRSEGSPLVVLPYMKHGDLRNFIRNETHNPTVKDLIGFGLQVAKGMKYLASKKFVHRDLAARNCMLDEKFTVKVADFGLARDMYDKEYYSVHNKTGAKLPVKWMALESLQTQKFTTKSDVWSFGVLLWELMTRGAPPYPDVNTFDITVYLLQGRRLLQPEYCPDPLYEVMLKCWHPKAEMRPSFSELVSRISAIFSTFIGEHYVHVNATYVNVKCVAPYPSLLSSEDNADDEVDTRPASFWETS

Row | SMILES | IC50 [µM]
1 | COc1ccc(C(=O)COC(=O)c2ccc3c(c2)C(=O)N(c2ccc(C(C)=O)cc2)C3=O)cc1 | 3.7
2 | O=C(CCCCCC(=O)N/N=C/c1cc2c(cc1[N+](=O)[O-])OCO2)N/N=C/c1cc2c(cc1[N+](=O)[O-])OCO2 | 0.78
3 | O=[N+]([O-])c1cc(-c2ccc(/C=N\n3cnnc3N/N=C/c3ccc(-c4ccc(Cl)c([N+](=O)[O-])c4)o3)o2)ccc1Cl | 3.3
4 | COc1ccc(C(=O)N/N=C2\C(=O)N(CN3CCOCC3)c3ccc(Br)cc32)cc1 | 2.2
5 | O=C(N/N=C1\C(=O)N(CN2CCOCC2)c2ccc(Br)cc21)c1ccccc1 | 3.5
6 | Cc1ccc(NC(=O)CN2C(=O)/C(=N\NC(=O)c3ccc(N)cc3)c3ccccc32)cc1 | 15.8
7 | O=C1Nc2ccccc2/C1=N/NC(=O)c1cc2ccccc2cc1O | 4.3
8 | CN1C(=O)/C(=N\NC(=O)c2ccc([N+](=O)[O-])cc2)c2ccccc21 | 12.3
9 | O=C1Nc2ccccc2C1=NNC(=O)c1ccc([N+](=O)[O-])cc1 | 28.3
10 | Cc1cccc(C(=O)Nc2ccc(C(=O)N/N=C3\C(=O)Nc4ccccc43)cc2)c1 | 1.3
11 | CN1C(=O)/C(=N\NC(=O)c2cccc(C(=O)N/N=C3/C(=O)N(C)c4ccccc43)c2)c2ccccc21 | 10.3
